Test results published in patent US20170044230A1 (USTAV ORGANICKE CHEMIE A BIOCHEMIE AV CR, V.V.I., priority 2014, published 2017).
“Also recorded” adds a separate entry of the source. Non-standard residues stand in square brackets, D forms with d. Residues, ends and D or L forms follow the SMILES beside them. *: point of attachment. 1Nal = N[C@@H](Cc1cccc2ccccc12)C(=O)O; Myristoyl = CCCCCCCCCCCCCC(=O)*; Dap = NC[C@H](N)C(=O)O; Sar = CNCC(=O)O

Tests used:
human GHS-R1a receptor = target: T1, human GHS-R1a receptor (Homo sapiens, UniProt Q92847); test: Competitive binding studies (displacement of 125I-ghrelin); details: relative to ghrelin = 100
T1 construct: purchased Multispan, Hayward, Calif., USA; host or cells: HEK293T cells, isolated plasma membranes
Description: Isolated plasma membranes from the HEK293T cells with transfected human GHS-R1a receptor (Multispan, Hayward, Calif., USA) were used. […] Experiments were carried out in duplicates at least three times. Competitive binding curves were plotted using GraphPad Prism Software (San Diego, Calif., USA) while comparing the best fit for single binding sites models.

fed C57BL/6 male mice = test: Effect of SC administered ghrelin analogs on food intake; type: in vivo; details: for maximal effect at 5 mg/kg on food intake: SC 5 mg/kg, evaluated 480 min after administration; for ED50 (250 min after injection), effect on food intake: SC
Description: All of the experiments followed the ethical guidelines for animal experiments and Czech Republic law 246/1992 and were approved by the committee for experiments with laboratory animals of the Academy of Sciences of the Czech Republic. Male C57BL/6 mice (Charles River, Germany) were housed at a temperature 22±2° C. under a daily cycle of 12/12 h light/dark (light from 6:00) with free access to water and a standard chow diet St-1 which contained […] of calories from protein, fat and carbohydrate, respectively, and its energy content was 3.4 kcal/g (Mlýn Kocanda, Praha, Czech Republic). Mice were placed into separate cages for one week before experiment, they had free access to water and food pellets. Closely before the experiment, the food pellets were removed from the cages. […] 15 min after the injection, mice were given preweighed food pellets. Food intake was monitored for 8-10 hours at 30-min intervals. Mice had free access to water during the experiment. Experiments were performed at least twice for each tested compound, each experimental group had at least 5 mice.
Data from food intake experiments were analyzed by one-way ANOVA followed by Dunnett's post-hoc test using GraphPad Prism Software (San Diego, Calif., USA), P<0.05 was considered statistically significant. ED50 values were calculated using GraphPad Prism Software as the dose of the tested compound required to elicit half-maximal effect at 250 min after administration of the corresponding compound.
Food intake was monitored for […] after administration of the compounds. ED50 values were determined 250 min after administration. Maximal effect on food intake was evaluated […] after administration of the compounds at a dose of 5 mg/kg of body weight. NT—not tested.

[1] = Pharmacokinetics in vivo after SC administration to mice; details: SC 5 mg/kg
Description: Mice were housed at a temperature 22±2° C. under a daily cycle of 12/12 h light/dark (light from 6:00) with free access to water and a standard chow diet St-1 (Mlýn Kocanda, Praha, Czech Republic).
4, 6, 14 and 18 at a dose of 5 mg/kg of body weight (0.2 ml/mouse, n=4). Blood was collected from tails before injection and 0.5, 1, 2, 4, 8, 16 and 24 h after injection. Plasma was separated and stored at −20° C.

[2] = test system: 4-5-week old male C57BL/6 mice; test: Growth hormone (GH) release after SC administration to young mice; type: in vivo; details: 10 min after SC 5 mg/kg
Description: 4 and 14 at a dose of 5 mg/kg of body weight (0.2 ml/mouse). 10 min after the injection, blood was collected, plasma was prepared and stored at −20° C. until use. GH levels in the plasma samples were determined by Rat/Mouse Growth Hormone ELISA kit (Merck-Millipore, St. Charles, Mo., USA). Ghrelin analogs no.

[3] = test system: mouse model of lipopolysaccharide-induced cachexia; test: Mouse model of lipopolysaccharide-induced cachexia (LPS model); type: in vivo, mice
Description: Male C57BL/6 mice (Charles River, Germany) were housed at a temperature of 22±2° C. under a daily cycle of 12/12 h light/dark (light from 6:00) with free access to water and a standard chow diet St-1 (Mlýn Kocanda, Praha, Czech Republic). One week before the experiment, the mice were placed into separated cages and habituated to an automatic system for food intake monitoring (Developmental workshop IOCB, Prague, Czech Republic). Animals were randomized into two groups, LPS group and control group. At 17:00, the LPS group was injected intraperitoneally (IP) with 100 μg/kg of body weight LPS (Escherichia coli 055:B5 serotype, Sigma) in a volume of 0.2 ml saline. The control group received an IP injection with an equal volume of saline. Food intake was monitored automatically in 10-min intervals. […] 14 (n=4-5 mice per group). Food intake was monitored for another 10 hours.
At the end of the experiment, mice were sacrificed by decapitation, blood was collected, plasma was prepared and stored at −20° C. Hypothalamus was dissected, frozen on dry ice and stored at −80° C., musculus gastrocnemius was dissected, flash-frozen in liquid nitrogen and stored at -80° C. C-reactive protein levels and pro-inflammatory/anti-inflammatory cytokine levels in blood plasma were determined using C-Reactive Protein Mouse ELISA (Biovendor, Bmo, Czech Republic) and Milliplex MAP Rat Cytokine/Chemokine Magnetic Bead Panel (Merck-Millipore, St. Charles, Mo., USA), respectively. Samples of hypothalamus and muscle were homogenized, total RNA was extracted and RNA concentration was determined as previously described (Holubova et al., 2014). Determination of the mRNA expression of genes of interest (MuRFI and MAFbx in muscle, NPY and AgRP in hypothalamus) was performed using an ABI PRISM 7500 instrument (Applied Biosystems, Foster City, Calif., USA). The expression of GAPDH or GUSH was used to compensate for variations in input RNA amounts and the efficiency of reverse transcription, and the modified formula 2-ΔCt was used to calculate the relative gene expression.

[4] = single SC 5 mg/kg after LPS, 5 mg/kg
[5] = single SC administration, LPS model

T1 sequence (Q92847 whole entry): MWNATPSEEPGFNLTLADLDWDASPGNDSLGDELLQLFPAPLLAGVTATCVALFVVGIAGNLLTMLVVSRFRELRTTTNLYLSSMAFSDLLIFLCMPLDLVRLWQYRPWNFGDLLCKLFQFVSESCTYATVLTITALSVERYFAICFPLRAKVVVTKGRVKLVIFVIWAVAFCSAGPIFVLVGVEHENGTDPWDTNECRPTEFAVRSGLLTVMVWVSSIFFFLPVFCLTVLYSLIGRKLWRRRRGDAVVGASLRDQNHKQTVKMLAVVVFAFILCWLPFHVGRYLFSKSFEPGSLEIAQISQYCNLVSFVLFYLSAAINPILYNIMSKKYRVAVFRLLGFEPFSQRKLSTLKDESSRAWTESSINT

% of ghrelin binding (human GHS-R1a receptor) | half-life ([1]; male, C57BL/6, mouse, plasma) | SMILES | maximal effect at 5 mg/kg on food intake (fed C57BL/6 male mice) | orexigenic effect (cumulative food intake), dose dependence (fed C57BL/6 male mice; SC 0.2, 1, 5 and 10 mg/kg, fed mice) | ED50 (250 min after injection), effect on food intake (fed C57BL/6 male mice; fed mice) | stability in vivo compared with ghrelin or Dpr^3ghrelin [1] | GH levels in plasma [2] | levels of C-reactive protein ([3]; single SC 5 mg/kg after LPS) | levels of pro-inflammatory cytokine IL-2 ([3]; single SC 5 mg/kg after LPS) | food intake ([3]; single SC 5 mg/kg after LPS, monitored 10 hours, 5 mg/kg) | expression of mRNA for orexigenic neuropeptides NPY and AgRP in hypothalamus [3, 4] | mRNA expression for markers of muscle degradation MuRF-1 and MAFbx [3, 4] | cachectic state [3, 5] | plasmatic levels of pro-inflammatory cytokines [3, 5]
57% | – | CCCCCCCCCCCCCC(=O)NC[C@H](NC(=O)[C@H](CO)NC(=O)CNC)C(=O)N[C@@H](Cc1cccc2ccccc12)C(=O)N[C@@H](CC(C)C)C(=O)N[C@@H](CO)C(=O)N1CCC[C@H]1C(=O)N[C@@H](CCC(=O)O)C(=O)N[C@@H](Cc1c[nH]cn1)C(=O)N[C@@H](CCC(N)=O)C(=O)N[C@@H](CCCCN)C(=O)N[C@@H](C)C(=O)N[C@@H](CCC(N)=O)C(=O)N[C@@H](CCC(N)=O)C(=O)N[C@@H](CCCNC(=N)N)C(=O)N[C@@H](CCCCN)C(=O)N[C@@H](CCC(=O)O)C(=O)N[C@@H](CO)C(=O)N[C@@H](CCCCN)C(=O)N[C@@H](CCCCN)C(=O)N1CCC[C@H]1C(=O)N1CCC[C@H]1C(=O)N[C@@H](C)C(=O)N[C@@H](CCCCN)C(=O)N[C@@H](CC(C)C)C(=O)N[C@@H](CCC(N)=O)C(=O)N1CCC[C@H]1C(=O)N[C@@H](CCCNC(=N)N)C(=O)O [Analog 4] (H-[Sar]S[Dap](Myristoyl)[1Nal]LSPEHQKAQQRKESKKPPAKLQPR-OH; N-terminus and C-terminus assumed) | 212.8 % of Dpr^3ghr | dose-dependent orexigenic effect | 6.02 mg/kg | significantly more stable than ghrelin or Dpr^3ghrelin | did not alter the GH levels | – | – | – | – | – | – | –
7% | 5 h | CCCCCCCCCCCCCC(=O)NC[C@H](NC(=O)[C@H](CO)NC(=O)CNC)C(=O)N[C@@H](Cc1ccc(Cl)c(Cl)c1)C(=O)N[C@@H](CC(C)C)C(=O)N[C@@H](CO)C(=O)N1CCC[C@H]1C(=O)N[C@@H](CCC(=O)O)C(=O)N[C@@H](Cc1c[nH]cn1)C(=O)N[C@@H](CCC(N)=O)C(=O)N[C@@H](CCCCN)C(=O)N[C@@H](C)C(=O)N[C@@H](CCC(N)=O)C(=O)N[C@@H](CCC(N)=O)C(=O)N[C@@H](CCCNC(=N)N)C(=O)N[C@@H](CCCCN)C(=O)N[C@@H](CCC(=O)O)C(=O)N[C@@H](CO)C(=O)N[C@@H](CCCCN)C(=O)N[C@@H](CCCCN)C(=O)N1CCC[C@H]1C(=O)N1CCC[C@H]1C(=O)N[C@@H](C)C(=O)N[C@@H](CCCCN)C(=O)N[C@@H](CC(C)C)C(=O)N[C@@H](CCC(N)=O)C(=O)N1CCC[C@H]1C(=O)N[C@@H](CCCNC(=N)N)C(=O)O [Analog 14] | 235.5 % of Dpr^3ghr | – | 0.65 mg/kg | significantly more stable than ghrelin or Dpr^3ghrelin | did not alter the GH levels | tended to normalize levels of C-reactive protein | normalized levels of pro-inflammatory cytokine IL-2 | significant increase in food intake; also recorded: increased food intake | significantly increased expression of mRNA; also recorded: increased expression of orexigenic neuropeptides in the hypothalamus | tended to decrease mRNA expression; also recorded: tended to decrease expression of markers of muscle degradation | improved the cachectic state | reduced plasmatic levels of pro-inflammatory cytokines
